Source: US10131652B2, “Pyrimidinyloxy benzene derivatives as herbicides” (E. I. DU PONT DE NEMOURS AND COMPANY, priority 2014, dated 2018)

Columns and labels:
Assay type in all cases: in vivo
[1] = system: waterhemp (common waterhemp, Amaranthus rudis); experiment: Test D pre-/postemergence plant response
Procedure, shortened: (§1)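 Seeds sown in loam–sand blend got preemergence sprays of test chemicals in a non-phytotoxic solvent with surfactant; postemergence sprays went on plants at 1- to 4-leaf stage (2 to 18 cm) in peat/vermiculite medium. After 13 to 15 days in greenhouse, visual injury versus controls scored 0 (no effect) to 100 (complete control).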

[2] = system: ragweed (common ragweed, Ambrosia elatior); experiment: Test D pre-/postemergence plant response
Procedure, shortened: as §1

[3] = system: Italian ryegrass (Lolium multiflorum); experiment: Test D pre-/postemergence plant response
Procedure, shortened: as §1

[4] = system: pigweed (Amaranthus retroflexus); experiment: Test D pre-/postemergence plant response
Procedure, shortened: as §1

[5] = system: galium (catchweed bedstraw, Galium aparine); experiment: Test D pre-/postemergence plant response
Procedure, shortened: as §1

[6] = system: blackgrass (Alopecurus myosuroides); experiment: Test D pre-/postemergence plant response
Procedure, shortened: as §1

[7] = system: barnyardgrass (Echinochloa crus-galli); experiment: Test D pre-/postemergence plant response
Procedure, shortened: as §1

corn (Zea mays) [8] = experiment: Test D pre-/postemergence plant response
Procedure, shortened: as §1

[9] = system: lambsquarters (Chenopodium album); experiment: Test D pre-/postemergence plant response
Procedure, shortened: as §1

[10] = system: giant foxtail (Setaria faberii); experiment: Test D pre-/postemergence plant response
Procedure, shortened: as §1

[11] = system: morningglory (Ipomoea coccinea); experiment: Test D pre-/postemergence plant response
Procedure, shortened: as §1

[12] = system: wheat (Triticum aestivum); experiment: Test B pre-/postemergence plant response
Procedure, shortened: (§2)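 Visual injury rating, 0 (no effect) to 100 (complete control), vs untreated controls after ~10 d greenhouse. Pre: directed soil spray after planting in loam/sand. Post: plants 2–10 cm, 1–2 leaf stage. Compound in non-phytotoxic solvent plus surfactant.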

[13] = system: pigweed (Amaranthus retroflexus); experiment: Test B pre-/postemergence plant response
Procedure, shortened: as §2

[14] = system: barnyardgrass (Echinochloa crus-galli); experiment: Test B pre-/postemergence plant response
Procedure, shortened: as §2

corn (Zea mays) [15] = experiment: Test B pre-/postemergence plant response
Procedure, shortened: as §2

[16] = system: giant foxtail (Setaria faberii); experiment: Test B pre-/postemergence plant response
Procedure, shortened: as §2

[17] = Postemergence, 31 g ai/ha, scale 0 to 100 (0 no effect, 100 complete control)
[18] = Postemergence, 62 g ai/ha, scale 0 to 100, 0 no effect, 100 complete control
[19] = Postemergence, 125 g ai/ha, scale 0 to 100, 0 no effect, 100 complete control
[20] = Postemergence, 16 g ai/ha, scale 0 to 100 (0 no effect, 100 complete control)
[21] = 125 g ai/ha, postemergence, 0 to 100 scale, 0 no effect, 100 complete control
[22] = Postemergence, 500 g ai/ha, 0 to 100 scale (0 no effect, 100 complete control)
[23] = Preemergence, 125 g ai/ha, 0 to 100 scale (0 no effect, 100 complete control)
[24] = Preemergence, 500 g ai/ha, 0 to 100 scale where 0 is no effect and 100 is complete control
[25] = Preemergence, 16 g ai/ha, scale 0 to 100 (0 no effect, 100 complete control)
[26] = Preemergence, 31 g ai/ha, scale 0 to 100 (0 no effect, 100 complete control)
[27] = Preemergence, 62 g ai/ha, scale 0 to 100 (0 no effect, 100 complete control)
[28] = 31 g ai/ha, Preemergence, 0 to 100 scale where 0 is no effect and 100 is complete control
[29] = 31 g ai/ha, Postemergence, 0 to 100 scale, 0 no effect, 100 complete control

Compound: FC(F)(F)c1cc(-c2c(Br)cccc2Oc2ncc(Cl)cn2)no1 [Compound 170]
- Waterhemp plant response rating [1, 17]: 80
- Plant response rating, Waterhemp [1, 18]: 100
- Plant response rating, Waterhemp [1, 19]: 85
- Ragweed plant response rating [2, 17]: 5
- Plant response rating, Ragweed [2, 18]: 10
- Plant response rating, Ragweed [2, 19]: 10
- Ryegrass, Italian plant response rating [3, 17]: 0
- Plant response rating, Ryegrass, Italian [3, 18]: 5
- Plant response rating, Ryegrass, Italian [3, 19]: 5
- Pigweed plant response rating [4, 17]: 90
- Plant response rating, Pigweed [4, 18]: 98
- Plant response rating, Pigweed [4, 19]: 98
- Galium plant response rating [5, 17]: 50
- Plant response rating, Galium [5, 18]: 65
- Plant response rating, Galium [5, 19]: 80
- Blackgrass plant response rating [6, 20]: 0
- Blackgrass plant response rating [6, 17]: 0
- Plant response rating, Blackgrass [6, 18]: 5
- Plant response rating, Blackgrass [6, 19]: 5
- Barnyardgrass plant response rating [7, 20]: 0
- Barnyardgrass plant response rating [7, 17]: 0
- Plant response rating, Barnyardgrass [7, 18]: 5
- Plant response rating, Barnyardgrass [7, 19]: 5
- Corn plant response rating (corn (Zea mays) [8]; [20]): 5
- Corn plant response rating (corn (Zea mays) [8]; [17]): 5
- Plant response rating, Corn (corn (Zea mays) [8]; [18]): 5
- Plant response rating, Corn (corn (Zea mays) [8]; [19]): 5
- Lambsquarters plant response rating [9, 17]: 40
- Plant response rating, Lambsquarters [9, 18]: 40
- Plant response rating, Lambsquarters [9, 19]: 80
- Foxtail, Giant plant response rating [10, 20]: 5
- Foxtail, Giant plant response rating [10, 17]: 30
- Plant response rating, Foxtail, Giant [10, 18]: 40
- Plant response rating, Foxtail, Giant [10, 19]: 40
- Morningglory plant response rating [11, 17]: 30
- Plant response rating, Morningglory [11, 18]: 70
- Plant response rating, Morningglory [11, 19]: 98
- Plant response rating, Wheat [12, 21]: 0
- Plant response rating, Wheat [12, 22]: 30
- Plant response rating, Pigweed [13, 21]: 100
- Plant response rating, Pigweed [13, 22]: 100
- Pigweed plant response rating [13, 23]: 100
- Plant response rating, Pigweed [13, 24]: 100
- Plant response rating, Barnyardgrass [14, 21]: 0
- Plant response rating, Barnyardgrass [14, 22]: 20
- Barnyardgrass plant response rating [14, 23]: 0
- Plant response rating, Barnyardgrass [14, 24]: 20
- Plant response rating, Corn (corn (Zea mays) [15]; [21]): 20
- Plant response rating, Corn (corn (Zea mays) [15]; [22]): 20
- Plant response rating, Foxtail, Giant [16, 21]: 30
- Plant response rating, Foxtail, Giant [16, 22]: 50
- Foxtail, Giant plant response rating [16, 23]: 60
- Plant response rating, Foxtail, Giant [16, 24]: 90

Compound: FC(F)Oc1cccc(Oc2ncc(Cl)cn2)c1-c1cc(C(F)F)on1 [Compound 131]
- Waterhemp plant response rating [1, 17]: 90
- Plant response rating, Waterhemp [1, 18]: 90
- Plant response rating, Waterhemp [1, 19]: 98
- Plant response rating (scale 0 to 100), Waterhemp ([1]; Preemergence, 125 g ai/ha): 100
- Plant response rating, Waterhemp [1, 25]: 100
- Plant response rating, Waterhemp [1, 26]: 100
- Plant response rating, Waterhemp [1, 27]: 100
- Ragweed plant response rating [2, 17]: 45
- Plant response rating, Ragweed [2, 18]: 65
- Plant response rating, Ragweed [2, 19]: 75
- Plant response rating (scale 0 to 100), Ragweed ([2]; Preemergence, 125 g ai/ha): 25
- Plant response rating, Ragweed [2, 25]: 0
- Plant response rating, Ragweed [2, 26]: 0
- Plant response rating, Ragweed [2, 27]: 0
- Ryegrass, Italian plant response rating [3, 17]: 5
- Plant response rating, Ryegrass, Italian [3, 18]: 5
- Plant response rating, Ryegrass, Italian [3, 19]: 25
- Plant response rating (scale 0 to 100), Ryegrass, Italian ([3]; Preemergence, 125 g ai/ha): 90
- Plant response rating, Ryegrass, Italian [3, 25]: 0
- Plant response rating, Ryegrass, Italian [3, 26]: 20
- Plant response rating, Ryegrass, Italian [3, 27]: 35
- Pigweed plant response rating [4, 17]: 98
- Plant response rating, Pigweed [4, 18]: 98
- Plant response rating, Pigweed [4, 19]: 100
- Plant response rating (scale 0 to 100), Pigweed ([4]; Preemergence, 125 g ai/ha): 100
- Plant response rating, Pigweed [4, 25]: 100
- Plant response rating, Pigweed [4, 26]: 100
- Plant response rating, Pigweed [4, 27]: 100
- Galium plant response rating [5, 17]: 85
- Plant response rating, Galium [5, 18]: 95
- Plant response rating, Galium [5, 19]: 95
- Plant response rating (scale 0 to 100), Galium ([5]; Preemergence, 125 g ai/ha): 90
- Plant response rating, Galium [5, 25]: 95
- Plant response rating, Galium [5, 26]: 30
- Plant response rating, Galium [5, 27]: 90
- Blackgrass plant response rating [6, 20]: 5
- Blackgrass plant response rating [6, 17]: 5
- Plant response rating, Blackgrass [6, 18]: 5
- Plant response rating, Blackgrass [6, 19]: 30
- Plant response rating (scale 0 to 100), Blackgrass ([6]; Preemergence, 125 g ai/ha): 95
- Plant response rating, Blackgrass [6, 25]: 5
- Plant response rating, Blackgrass [6, 26]: 80
- Plant response rating, Blackgrass [6, 27]: 90
- Barnyardgrass plant response rating [7, 20]: 10
- Barnyardgrass plant response rating [7, 17]: 10
- Plant response rating, Barnyardgrass [7, 18]: 10
- Plant response rating, Barnyardgrass [7, 19]: 20
- Plant response rating (scale 0 to 100), Barnyardgrass ([7]; Preemergence, 125 g ai/ha): 100
- Plant response rating, Barnyardgrass [7, 25]: 30
- Plant response rating, Barnyardgrass [7, 26]: 75
- Plant response rating, Barnyardgrass [7, 27]: 85
- Corn plant response rating (corn (Zea mays) [8]; [20]): 5
- Corn plant response rating (corn (Zea mays) [8]; [17]): 5
- Plant response rating, Corn (corn (Zea mays) [8]; [18]): 10
- Plant response rating, Corn (corn (Zea mays) [8]; [19]): 25
- Plant response rating (scale 0 to 100), Corn (corn (Zea mays) [8]; Preemergence, 125 g ai/ha): 65
- Plant response rating, Corn (corn (Zea mays) [8]; [25]): 0
- Plant response rating, Corn (corn (Zea mays) [8]; [26]): 10
- Plant response rating, Corn (corn (Zea mays) [8]; [27]): 60
- Lambsquarters plant response rating [9, 17]: 98
- Plant response rating, Lambsquarters [9, 18]: 98
- Plant response rating, Lambsquarters [9, 19]: 100
- Plant response rating (scale 0 to 100), Lambsquarters ([9]; Preemergence, 125 g ai/ha): 98
- Plant response rating, Lambsquarters [9, 25]: 75
- Plant response rating, Lambsquarters [9, 26]: 80
- Plant response rating, Lambsquarters [9, 27]: 85
- Foxtail, Giant plant response rating [10, 20]: 10
- Foxtail, Giant plant response rating [10, 17]: 10
- Plant response rating, Foxtail, Giant [10, 18]: 15
- Plant response rating, Foxtail, Giant [10, 19]: 15
- Plant response rating (scale 0 to 100), Foxtail, Giant ([10]; Preemergence, 125 g ai/ha): 100
- Plant response rating, Foxtail, Giant [10, 25]: 80
- Plant response rating, Foxtail, Giant [10, 26]: 100
- Plant response rating, Foxtail, Giant [10, 27]: 100
- Morningglory plant response rating [11, 17]: 75
- Plant response rating, Morningglory [11, 18]: 75
- Plant response rating, Morningglory [11, 19]: 95
- Plant response rating (scale 0 to 100), Morningglory ([11]; Preemergence, 125 g ai/ha): 85
- Plant response rating, Morningglory [11, 25]: 0
- Plant response rating, Morningglory [11, 26]: 40
- Plant response rating, Morningglory [11, 27]: 35
- Plant response rating, Wheat [12, 21]: 30
- Plant response rating, Pigweed [13, 28]: 100
- Plant response rating, Pigweed [13, 21]: 100
- Pigweed plant response rating [13, 23]: 100
- Plant response rating, Barnyardgrass [14, 29]: 50
- Plant response rating, Barnyardgrass [14, 28]: 80
- Plant response rating, Barnyardgrass [14, 21]: 90
- Barnyardgrass plant response rating [14, 23]: 100
- Plant response rating, Corn (corn (Zea mays) [15]; [29]): 20
- Plant response rating, Corn (corn (Zea mays) [15]; [21]): 40
- Plant response rating, Foxtail, Giant [16, 29]: 50
- Plant response rating, Foxtail, Giant [16, 28]: 100
- Plant response rating, Foxtail, Giant [16, 21]: 90
- Foxtail, Giant plant response rating [16, 23]: 100
